According to US11072634B2, “Inhibitors of transglutaminases” (Zedira GmbH, priority 2016, dated 2021):

Tests used:
[1] = biological target: T1, TG2 (Homo sapiens, UniProt P21980); experiment: Transglutaminase activity of homogenates of LX-2 cells; format: cell-based; conditions: LX-2, 100 μM, 12 days; read-out: Transglutaminase activity, of the inhibitor free control
T1 sequence (P21980 1-687): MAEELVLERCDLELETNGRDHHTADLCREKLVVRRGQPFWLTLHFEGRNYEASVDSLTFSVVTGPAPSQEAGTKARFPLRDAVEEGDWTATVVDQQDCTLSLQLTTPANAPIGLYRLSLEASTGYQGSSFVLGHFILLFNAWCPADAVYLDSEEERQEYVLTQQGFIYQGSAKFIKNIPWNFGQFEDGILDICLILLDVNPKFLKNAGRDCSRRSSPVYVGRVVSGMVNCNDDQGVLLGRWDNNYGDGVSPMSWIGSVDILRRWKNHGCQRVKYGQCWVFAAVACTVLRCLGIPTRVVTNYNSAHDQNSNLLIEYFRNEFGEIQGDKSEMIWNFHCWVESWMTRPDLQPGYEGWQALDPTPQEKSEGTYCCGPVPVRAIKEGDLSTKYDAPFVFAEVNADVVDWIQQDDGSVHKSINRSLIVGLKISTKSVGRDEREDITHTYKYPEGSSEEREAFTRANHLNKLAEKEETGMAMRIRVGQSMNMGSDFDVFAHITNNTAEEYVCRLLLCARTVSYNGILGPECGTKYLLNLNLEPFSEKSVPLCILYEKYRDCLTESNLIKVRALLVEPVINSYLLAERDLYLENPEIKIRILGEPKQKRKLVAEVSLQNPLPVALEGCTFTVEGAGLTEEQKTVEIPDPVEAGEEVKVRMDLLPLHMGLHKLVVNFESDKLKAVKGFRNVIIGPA
Procedure: A) Transglutaminase activity of homogenates from LX-2-cells grown in standard plastic 6-well plates in the presence of 0-200 μM E22 determined by TG2-selective Tissue Transglutaminase Pico-Assay Kit (#M003, Zedira, Darmstadt, Germany) according to the manufacturer's instructions.
(§1) Human hepatic stellate cell line LX-2 was cultured on standard plastic 6 well plates in Dulbecco's Modified Eagle's Medium containing 100 μg/mL streptomycin, 100 units/ml penicillin, 2 mM glutamine, and 10% (v/v) fetal calf serum. E22 was added to a concentration of 0 μM, 100 μM and 200 μM. Cells were grown at 37° C. and 5% CO2 humidified atmosphere. Medium was exchanged every two days.

[2] = biological target: T1, TG2; experiment: Transglutaminase activity of homogenates of LPS-stimulated BEAS-2B cells; format: cell-based; conditions: 0-200 μM
Procedure: A) Transglutaminase activity of homogenates from BEAS-2B-cell grown in the presence of 0-200 μM E22 and stimulated with LPS determined by TG2-selective Tissue Transglutaminase Pico-Assay Kit (#M003, Zedira, Darmstadt, Germany) according to the manufacturer's instructions.
(§2) Extracellular matrix deposition is a hallmark in pulmonary fibrosis. The BEAS-2B cell line is derived from normal human bronchial epithelium.
(§3) BEAS-2B cells were grown at 37° C. and 5% CO2 in 25 mM HEPES-buffered M199-medium (Merck, Darmstadt) containing 10% FBS, […], 2 mM glutamine, 100 U/ml penicillin (supplemented with […] apotransferrin, 20 ng/ml human epidermal growth factor (EGF), […] insulin, and 0.361 mg/ml hydrocortisone). For the induction of airway fibrosis by epithelial-to-mesenchymal transition (EMT), cells were seeded at 80% confluence on six-well plates. After one day cultivation 4 μg/mL LPS as well as 0 μM, 100 μM or 200 μM E22 were added and then incubated for further 72 h.

[3] = tested on: Human hepatic stellate cell line LX-2; experiment: Extracellular matrix protein deposition of LX-2 cells; format: cell-based; conditions: LX-2, 100 μM and 200 μM, 12 days
Procedure: B) Extracellular matrix protein deposition of homogenates from LX-2-cells grown in standard plastic 6-well plates in the presence of 0-200 μM E22 measured by the DC-protein-assay (BioRad, #5000111).
as §1

[4] = tested on: BEAS-2B cells; experiment: Extracellular matrix protein deposition of LPS-stimulated BEAS-2B cells; format: cell-based, human; conditions: 0-200 μM
Procedure: B) Extracellular matrix protein deposition of homogenates from BEAS-2B-cell grown in the presence of 0-200 μM E22 and stimulated with LPS measured by the DC-protein-assay (BioRad, #5000111).
as §2, §3

[5] = tested on: CaCo2 and Huh7 cells; experiment: Cytotoxicity of transglutaminase inhibitors (BrdU and EZ4U); format: cell-based, human; conditions: highest concentration measured 1 mM
Procedure: The following cell lines are used for determination of cytotoxicity: • CaCo2 (human colon carcinoma cell line) • Huh7 (human liver carcinoma cell line).
Cells are cultivated in DMEM/10% FCS at 37° C. and 5% CO2 in a 96 well plate with an initial seeding density of 2×10^4 cells/well.
Transglutaminase inhibitors are added to the cells with final concentrations from 0.1 μM to 1 mM one hour after seeding. The different inhibitor dilutions are prepared in DMSO, resulting in a final concentration of 1% (v/v) DMSO in every well (2 μl inhibitor in 200 μl cell culture medium). Cycloheximide (2.5 μg/ml) and Camptothecin (0.2 μg/ml) are used as control compounds. All measurements are performed in triplicates.
Cytotoxicity of transglutaminase inhibitors is evaluated with two different assays:
Determination of proliferation using Cell Proliferation ELISA, BrdU (Roche, Cat. No. 11647229001).
After 24 h of incubation with inhibitors or controls, BrdU is added to the cells. After further incubation for 18 h, the cells are fixed and cellular DNA becomes denatured. […] Substrate solution is added and absorbance at 450 nm is recorded. […]
After 48 h of incubation with inhibitors or controls, the tetrazolium substrate is added to the cells. Substrate turnover by the cells is measured over two hours at 450 nm (using 630 nm was reference wavelength).

remaining activity at 100 µM [1]	Transglutaminase activity [2]	SMILES	extracellular matrix deposition, of control [3]	deposition of ECM-proteins [4]	no influence on cell proliferation or metabolic activity up to [5]
< 5%	dose dependent reduction	CCCCCNC(=O)C(=O)CC[C@H](NC(=O)[C@@H]1CCCN1C(C)=O)C(=O)Nc1cccn(CC(=O)NCC(CC)CC)c1=O [Compound E22, (S)-2-((S)-1-acetylpyrrolidine-2-carboxamido)-N1-(1-(2-(2-ethylbutylamino)-2-oxoethyl)-2-oxo-1,2-dihydropyridin-3-yl)-5-oxo-N6-pentylhexanediamide]	about 30%	significantly reduced, also in a dose dependent manner	
		COC(=O)[C@H](CC(C)C)NC(=O)[C@@H]1CCCN1C(=O)[C@@H](NC(=O)[C@H](CCC(=O)C(N)=O)NC(=O)OCc1ccccc1)C(C)C [Compound E02, (S)-methyl 2-((S)-1-((S)-2-((S)-6-amino-2-(benzyloxycarbonylamino)-5,6-dioxo-hexanamido)-3-methylbutanoyl)pyrrolidine-2-carboxamido)-4-methylpentanoate]			> 1 mM
